Results taken from patent US7322965B2, “Infection-resistant medical devices” (priority 2002, dated 2008).
Converted amounts (≈) assume the structure as drawn. “Also recorded” adds a separate entry of the source. Where two headings read alike, the source gives them in different places. Marks after values point to notes of the source that are not given here.

Tests used:
[1] = tested on: S. aureus and S. epidermidis strains; test: Microtiter-plate adherence assay, summary over all strains evaluated; assay type: cell-based, staphylococci
Method: (§1) Briefly, the inoculum was established by the direct colony suspension method using the Prompt™ Inoculation System (Becton Dickinson, Sparks, Md.). The bacteria suspension, which was equal to the turbidity of a 0.5 McFarland standard, was diluted in TSB to a concentration of 1×10^6 colony forming units per ml (CFU/mL). One hundred microliters of the cell suspension was added to flat-bottom polystyrene wells (Corning Costar, Corning, N.Y.) containing 100 μl of TSB, with and without drug. The final inoculum concentration per well was approximately 5×10^5 CFU/mL. The plates were incubated at 37° C. under static conditions in air. At 18 hours (h) post-infection, the optical density of bacterial growth was measured at a wavelength of 595 nm in a microtiter plate reader (Vmax; Molecular Devices, Sunnyvale, Calif.). […] Adherent “sessile” cells then were fixed with 3.7% (v/v) formaldehyde/2% (w/v) sodium acetate and stained with 0.1% (w/v) crystal violet. Excess stain was rinsed off with deionized water and the plates were air-dried for 4 h. The optical density of bacterial adherence was determined at a wavelength of 550 nm. Preliminary studies were performed to determine the optimal wavelengths for measuring growth turbidity and stained adherent cells (data not shown). To compensate for background absorbance, optical density readings from wells treated with sterile medium, fixative and stain as described above were averaged and then subtracted from all test and control wells. Relative inhibition of adherence or growth was expressed by the following equation: (OD of control well−OD of treated well/OD of control well)×100, where OD is the mean optical density of six replicate wells from two separate experiments (three replicates per experiment). Control was defined as infected, drug-free cultures.
(§2) The primary efficacy variable in this study was the measurement of adherent bacterial cells to polystyrene after 18 h of growth. To determine whether statistically significant differences existed between treatment groups (MIC, ½ MIC, and ¼ MIC) compared with the infected-nontreated controls, the Kruskal-Wallis one-way analysis of variance (ANOVA) was applied for each clinical strain. Statistical significance was defined as p-values ≦0.05. An asterisk (*) was placed by all test values less than or equal to the specified significance level.

S. epidermidis RP62A = test: Determination of minimum inhibitory concentration (microdilution); assay type: cell-based; details: Staphylococcus epidermidis; S. epidermidis RP62A; 18 h; read-out: MIC (minimum inhibitory concentration)
S. epidermidis UC-20207 = test: Time course adherence assay (prophylactic and delayed treatment); assay type: cell-based; details: for inhibition at 1 µg/mL / inhibition at 2 µg/mL / inhibition at 4 µg/mL / inhibition at 80 µg/mL: Staphylococcus epidermidis, read-out: Percent inhibition of bacterial adherence relative to controls; for Mean OD550: UC-20207
Method: Drug effects on bacterial adherence were measured 18 hours after treatment initiation using a quantitative spectrophotometric assay.
Relative inhibition of adherence was expressed by the following equation: (OD of control well−OD of treated well/OD of control well)×100, where OD is the mean optical density of six replicate wells from two separate experiments (three replicates per experiment). Control was defined as infected, drug-free cultures.
The primary efficacy variable in this study was the measurement of adherent bacteria to polystyrene surfaces after 18 hours to 24 hours of growth. To determine whether statistically significant differences existed between treatments (4×MIC, 2×MIC, MIC, and ½ MIC) compared with the infected-nontreated controls, multiple comparisons according to Dunnett's test (Montgomery, Design and Analysis of Experiments (1991)) were applied for each clinical strain. Differences were considered statistically significant when p<0.05.

S. hominis SP-2 = test: Determination of minimum inhibitory concentration (microdilution); assay type: cell-based; details: Staphylococcus hominis, SP2; S. hominis SP-2; 18 h; read-out: MIC (minimum inhibitory concentration)
S. hominis SP2 = test: Microtiter-plate adherence assay on polystyrene, nonadherent reference strain; assay type: cell-based; details: data not shown
Method: Briefly, the inoculum was established by the direct colony suspension method using the Prompt™ Inoculation System (Becton Dickinson, Sparks, Md.). The bacteria suspension, which was equal to the turbidity of a 0.5 McFarland standard, was diluted in TSB to a concentration of 1×10^6 colony forming units per ml (CFU/mL). One hundred microliters of the cell suspension was added to flat-bottom polystyrene wells (Corning Costar, Corning, N.Y.) containing 100 μl of TSB, with and without drug. The final inoculum concentration per well was approximately 5×10^5 CFU/mL. The plates were incubated at 37° C. under static conditions in air. At 18 hours (h) post-infection, the optical density of bacterial growth was measured at a wavelength of 595 nm in a microtiter plate reader (Vmax; Molecular Devices, Sunnyvale, Calif.). […] The optical density of bacterial adherence was determined at a wavelength of 550 nm. […] To compensate for background absorbance, optical density readings from wells treated with sterile medium, fixative and stain as described above were averaged and then subtracted from all test and control wells. […]
Reliability of the microtiter-plate adherence assay was assessed with the reference strains S. hominis SP2 (nonadherent) and S. epidermidis RP62A (strongly adherent). The median optical density readings for SP2 and RP62A were 0.059±0.004 and 2.789±0.266, respectively. […]

S. aureus UC-20205 = test: Microtiter-plate adherence assay on polystyrene; assay type: cell-based; details: for Adherence Mean OD550: S. aureus UC-20205, 18 h
Method: as §1, §2

S. epidermidis UC-20208 = test: Microtiter-plate adherence assay on polystyrene; assay type: cell-based; details: for Adherence Mean OD550: S. epidermidis UC-20208, 18 h
Method: as §1, §2

S. aureus UC-20206 = test: Microtiter-plate adherence assay on polystyrene; assay type: cell-based; details: for Adherence Mean OD550: S. aureus UC-20206, 18 h
Method: as §1, §2

[2] = Staphylococcus aureus, UC20205, 18 h, read-out: Adherence % Inhibition
[3] = Staphylococcus epidermidis, UC20208, 18 h, read-out: Adherence % Inhibition
[4] = Staphylococcus aureus, UC20206, 18 h, read-out: Adherence % Inhibition

Compound: CC(=O)NC[C@H]1CN(c2ccc(N3CCOCC3)c(F)c2)C(=O)O1 [Linezolid, (S)-N-[[3-[3-fluoro-4-(4-morpholinyl)phenyl]-2-oxo-5-oxazolidinyl]methyl]acetamide]
- effect on bacterial adhesion at subinhibitory concentrations ([1]; concentrations less than the MIC, as low as one-fourth the MIC, five strains): surprisingly effective at preventing bacterial adhesion; also recorded: significant inhibitory effects on cell adhesion in all strains evaluated
- preventing adherence to polystyrene ([1]; one-fourth the MIC, five strains): effective in preventing adherence at one-fourth the MIC in all but one strain
- percent inhibition of adherence relative to control ([1]; one-half the MIC, all strains evaluated): greater than or equal to 99.0%
- MIC (S. epidermidis RP62A): 2 µg/mL (≈ 5.93 µM)
- inhibition at 1 µg/mL (S. epidermidis UC-20207; UC20207, 0 h): 96.5%
- inhibition at 2 µg/mL (S. epidermidis UC-20207; UC20207, 0 h): 99%
- inhibition at 4 µg/mL (S. epidermidis UC-20207; UC20207, 0 h): 99.6%
- inhibition at 80 µg/mL (S. epidermidis UC-20207; UC20207, 0 h): 99.8%
- inhibition at 1 µg/mL (S. epidermidis UC-20207; UC20207, 2 h): 97.5%
- inhibition at 2 µg/mL (S. epidermidis UC-20207; UC20207, 2 h): 99.8%
- inhibition at 4 µg/mL (S. epidermidis UC-20207; UC20207, 2 h): 99.7%
- inhibition at 80 µg/mL (S. epidermidis UC-20207; UC20207, 2 h): 99.6%
- inhibition at 1 µg/mL (S. epidermidis UC-20207; UC20207, 4 h): 68.4%
- inhibition at 2 µg/mL (S. epidermidis UC-20207; UC20207, 4 h): 87.8%
- inhibition at 4 µg/mL (S. epidermidis UC-20207; UC20207, 4 h): 99.2%
- inhibition at 80 µg/mL (S. epidermidis UC-20207; UC20207, 4 h): 99%
- inhibition at 1 µg/mL (S. epidermidis UC-20207; UC20207, 6 h): 0%
- inhibition at 2 µg/mL (S. epidermidis UC-20207; UC20207, 6 h): 0%
- inhibition at 4 µg/mL (S. epidermidis UC-20207; UC20207, 6 h): 41.4%
- inhibition at 80 µg/mL (S. epidermidis UC-20207; UC20207, 6 h): 75.1%
- Mean OD550 (S. epidermidis UC-20207; 1.0 μg/ml, treatment 0 h post-infection): 0.084 ± 0.049
- Mean OD550 (S. epidermidis UC-20207; 1.0 μg/ml, treatment 2 h post-infection): 0.064 ± 0.046
- Mean OD550 (S. epidermidis UC-20207; 1.0 μg/ml, treatment 4 h post-infection): 0.921 ± 0.119
- Mean OD550 (S. epidermidis UC-20207; 1.0 μg/ml, treatment 6 h post-infection): 2.757 ± 0.173
- Mean OD550 (S. epidermidis UC-20207; 2.0 μg/ml (MIC), treatment 0 h post-infection): 0.024 ± 0.005
- Mean OD550 (S. epidermidis UC-20207; 2.0 μg/ml (MIC), treatment 2 h post-infection): 0.004 ± 0.002
- Mean OD550 (S. epidermidis UC-20207; 2.0 μg/ml (MIC), treatment 4 h post-infection): 0.356 ± 0.418
- Mean OD550 (S. epidermidis UC-20207; 2.0 μg/ml (MIC), treatment 6 h post-infection): 2.938 ± 0.119
- Mean OD550 (S. epidermidis UC-20207; 4.0 μg/ml, treatment 0 h post-infection): 0.009 ± 0.004
- Mean OD550 (S. epidermidis UC-20207; 4.0 μg/ml, treatment 2 h post-infection): 0.007 ± 0.001
- Mean OD550 (S. epidermidis UC-20207; 4.0 μg/ml, treatment 4 h post-infection): 0.022 ± 0.010
- Mean OD550 (S. epidermidis UC-20207; 4.0 μg/ml, treatment 6 h post-infection): 1.558 ± 0.094
- Mean OD550 (S. epidermidis UC-20207; linezolid 80 μg/ml, treatment 0 h post-infection): 0.005 ± 0.002
- Mean OD550 (S. epidermidis UC-20207; linezolid 80 μg/ml, treatment 2 h post-infection): 0.009 ± 0.003
- Mean OD550 (S. epidermidis UC-20207; linezolid 80 μg/ml, treatment 4 h post-infection): 0.028 ± 0.020
- Mean OD550 (S. epidermidis UC-20207; linezolid 80 μg/ml, treatment 6 h post-infection): 0.662 ± 0.103
- MIC (S. hominis SP-2): 2 µg/mL (≈ 5.93 µM)
- promotion of adherence of the nonadherent strain (S. hominis SP2): Neither linezolid nor vancomycin promoted adherence
- Adherence Mean OD550 (S. aureus UC-20205; drug 0.5 μg/ml): 0.013 ± 0.007*
- Adherence Mean OD550 (S. aureus UC-20205; drug 1.0 μg/ml): 0.005 ± 0.007*
- Adherence Mean OD550 (S. aureus UC-20205; drug 2.0 μg/ml): 0.001 ± 0.001*
- inhibition at 0.5 µg/mL (S. aureus UC-20205; [2]): 97.6%
- inhibition at 1 µg/mL (S. aureus UC-20205; [2]): 99%
- inhibition at 2 µg/mL (S. aureus UC-20205; [2]): 99.7%
- Adherence Mean OD550 (S. epidermidis UC-20208; drug 0.5 μg/ml): 1.342 ± 0.791
- Adherence Mean OD550 (S. epidermidis UC-20208; drug 1.0 μg/ml): 0.001 ± 0.002*
- Adherence Mean OD550 (S. epidermidis UC-20208; drug 2.0 μg/ml (MIC)): 0.000 ± 0.001*
- inhibition at 0.5 µg/mL (S. epidermidis UC-20208; [3]): 26.7%
- inhibition at 1 µg/mL (S. epidermidis UC-20208; [3]): 99.9%
- inhibition at 2 µg/mL (S. epidermidis UC-20208; [3]): 100%
- Adherence Mean OD550 (S. aureus UC-20206; drug 1.0 μg/ml): 0.001 ± 0.002*
- Adherence Mean OD550 (S. aureus UC-20206; drug 2.0 μg/ml): 0.002 ± 0.002*
- Adherence Mean OD550 (S. aureus UC-20206; drug 4.0 μg/ml): 0.003 ± 0.003*
- inhibition at 1 µg/mL (S. aureus UC-20206; [4]): 99.4%
- inhibition at 2 µg/mL (S. aureus UC-20206; [4]): 99.3%
- inhibition at 4 µg/mL (S. aureus UC-20206; [4]): 98.5%
